Measurements published in PMC6718478, “A Comprehensive Antimicrobial Activity Evaluation of the Recombinant Microcin J25 Against the Foodborne Pathogens Salmonella and E. coli O157:H7 by Using a Matrix of Conditions” (Frontiers in Microbiology, 2019).
Positions of bridges follow the written chain, without caps; N, C: chain ends. Residues, ends and D or L forms follow the SMILES beside them.

Legend:
[1] = test system: S. Pullorum; assay: Antimicrobial activity in different growth phases, viable plate counting; format: cell-based, Salmonella Pullorum; conditions: LB, n = 6; for time to reduction to undetectable levels: early- or late-log phase cells, plate counts at 0, 12, 24, 48 h; for time to reduction to non-detectable levels: stationary phase cells, plate counts
Procedure: (§1) The effect of growth phase on the anti-Salmonella and -E. coli O157:H7 activity of recombinant MccJ25 was determined by the viable plate counting method, as described previously ([Ma et al., 2016]; [Fan et al., 2017]), with minor modifications. Cultures of the strains in the early-log phase, late-log phase and stationary phase were washed, concentrated and diluted with sterilized phosphate-buffered saline (PBS) to approximately 10^7 CFU/mL. Then, 1 mL was incubated individually in 9 mL of PBS to reach an approximate 10^6 CFU/mL final concentration. The bacterial cells were then inoculated into 5 mL of LB containing different concentrations of MccJ25 (0, 1 × MIC, 2 × MIC, and 4 × MIC). At 0, 12, 24, and 48 h post incubation, the cultures (0.1 mL) were serially diluted with PBS and plated on LB and TSA agar. The plates were incubated at 37°C overnight to count colony. Colonies were counted to determine CFU/mL. The experiment was conducted with two replicates in three independent trials.

[2] = test system: S. Pullorum; assay: TEM of morphology and intracellular alteration; format: cell-based, Salmonella Pullorum
Procedure: For TEM sample preparation, (1) two milliliters of 2 × 10^6 cells of S. Pullorum broth cultured in the absence or presence of 1×, 2× and 4× MIC of the recombinant MccJ25 were incubated and collected at 1 h. (2) After that, approximately 2 × 10^6 S. Pullorum cells were incubated at 37°C for […] with the recombinant MccJ25 at 2 × MIC for 2, 3, and 4 h. They were then centrifuged at 5,000 × g for 5 min. Pretreatment of bacterial samples was conducted in the same way as the SEM treatment. Finally, the samples were placed in capsules containing embedding medium and heated at 70°C for approximately 9 h. Specimens were stained with uranyl acetate and alkaline lead citrate for 15 min. They were then observed by TEM (Model JEM-1230, JEOL, Japan).

[3] = test system: S. Pullorum; assay: pH stability, inhibition zone read-out; format: physicochemical, Salmonella Pullorum; conditions: pH 2.0 to 9.0 for 2 h; 150 μL of 1 × MIC; Oxford cup inhibition zone on LB agar, overnight 37°C; three replicate experiments
Procedure: Assays of the antibacterial activity of recombinant MccJ25 at different temperatures (25, 37, 45, 55, 65, 75, 85, and 95°C for 20 min) and different pH values (pH 2.0, 3.0, 4.0, 5.0, 6.0, 7.0, 8.0, and 9.0 for 2 h) were performed. The assays were conducted as described previously ([Chen et al., 2009]; [Meng et al., 2019]), with slight modifications. LB agar inoculated with the indicator bacteria S. Pullorum (approximately 10^5 viable cells per mL) was poured over plates fitted with Oxford cups to make wells. 150 μL of 1 × MIC final concentration of recombinant MccJ25 samples previously treated under various conditions were added to the wells. The agar overlays were incubated overnight at 37°C, and the inhibition zones were recorded.

[4] = test system: E. coli O157:H7; assay: Antimicrobial activity in biological food products (skim milk, egg yolk, mincemeat extract); format: cell-based, Escherichia coli; conditions: 4 × MIC, SKM, 37°C; for viable bacteria after 24 h in the three food products: SEY, SMS, data not shown
[5] = test system: S. Pullorum; assay: Thermal stability, inhibition zone read-out; format: physicochemical, Salmonella Pullorum; conditions: temperatures as high as 121°C for 20 min; 150 μL of 1 × MIC; Oxford cup inhibition zone on LB agar, overnight 37°C; three replicate experiments
Procedure: […] The assays were conducted as described previously ([Chen et al., 2009]; [Meng et al., 2019]), with slight modifications. LB agar inoculated with the indicator bacteria S. Pullorum (approximately 10^5 viable cells per mL) was poured over plates fitted with Oxford cups to make wells. 150 μL of 1 × MIC final concentration of recombinant MccJ25 samples previously treated under various conditions were added to the wells. The agar overlays were incubated overnight at 37°C, and the inhibition zones were recorded.

[6] = test system: S. Pullorum CVCC1791; assay: Antimicrobial activity (killing) curves; format: cell-based, Salmonella Pullorum
Procedure: To further address the activity of recombinant MccJ25, antimicrobial activity curves and Live/Dead viability assay were performed. A single colony of S. Pullorum CVCC1791, S. Typhimurium ATCC14082, and E. coli O157:H7 was inoculated into 5 mL of LB. The culture was then incubated at 37°C with shaking at 200 rpm overnight. The following day, the culture was diluted 1:100 in fresh LB and again incubated at 37°C with shaking at 200 rpm. For antimicrobial activity, the bacteria were grown until they reached log phase. Approximately 5 × 10^4 CFU/mL bacteria were inoculated into 2 mL of LB containing different concentrations of the recombinant MccJ25 (0, 1 × MIC, 2 × MIC, and 4 × MIC). […] The plates were incubated at 37°C overnight to count colony. Colonies were counted to determine CFU/mL. The experiment was conducted with two replicates in three independent trials.

[7] = test system: S. Pullorum; assay: Live/Dead BacLight viability assay; format: cell-based, Salmonella Pullorum; conditions: at the MIC level, 2 h at 37°C, 5 × 10^4 CFU/mL in LB; fluorescence microscopy
Procedure: (§2) A Live/Dead BacLight Bacterial Viability Kit 7 (Molecular Probes, Inc., Eugene) was used to test bacterial viability. Briefly, 5 × 10^4 CFU/mL S. Pullorum, S. Typhimurium, and E. coli O157:H7 were inoculated into 1 mL of LB containing recombinant MccJ25 at the MIC level specific for each pathogen. Bacterial cultures were incubated at 37°C for 2 h and then incubated in the dark at ambient temperature with SYTO 9 and propidium iodide for 15 min. Bacteria were observed using a fluorescence microscope (EVOS XL Cell Imaging System).

[8] = test system: E. coli O157:H7; assay: Live/Dead BacLight viability assay; format: cell-based, Escherichia coli; conditions: at the MIC level, 2 h at 37°C, 5 × 10^4 CFU/mL in LB; fluorescence microscopy
Procedure: as §2

[9] = test system: S. Typhimurium; assay: Antimicrobial activity in different growth phases, viable plate counting; format: cell-based, Salmonella Typhimurium; conditions: LB, plate counts, n = 6; for time within which bacteria were killed: early and late-log phase cells
Procedure: as §1

## CC[C@H](C)[C@H](NC(=O)CNC(=O)[C@@H](NC(=O)[C@H](Cc1ccccc1)NC(=O)[C@H](Cc1ccc(O)cc1)NC(=O)[C@@H]1CCC(=O)NCC(=O)NCC(=O)N[C@@H](C)C(=O)NCC(=O)N[C@@H](Cc2c[nH]cn2)C(=O)N[C@@H](C(C)C)C(=O)N2CCC[C@H]2C(=O)N1)C(C)C)C(=O)NCC(=O)N[C@H](C(=O)N1CCC[C@H]1C(=O)N[C@H](C(=O)N[C@@H](CO)C(=O)N[C@@H](Cc1ccccc1)C(=O)N[C@@H](Cc1ccc(O)cc1)C(=O)NCC(=O)O)[C@@H](C)CC)[C@@H](C)O [recombinant MccJ25, microcin J25] (GGAGHVPEYFVGIGTPISFYG-OH; lactam N-8 (inferred); C-terminus assumed)
[1]; 8 μg/mL
  time to reduction to undetectable levels: ≤ 24 h
  time to reduction to non-detectable levels: ≤ 48 h
[1]; 4 × MIC
  time to reduction to undetectable levels: ≤ 12 h
[1]; 16 μg/mL
  time to reduction to non-detectable levels: ≤ 24 h
[2]; 1, 2, or 4 × MIC for 1 h, 2 × 10^6 cells
  cytoplasmic membrane integrity by TEM: significantly disrupted the membrane
[2]; 2 × MIC for 2, 3, and 4 h
  morphology and intracellular alteration by TEM: deformed small septa, invisible cytoplasmic membranes, heterogeneous electron density, electron-light regions and thinned cell walls
[3]
  effect of pH on activity against S. Pullorum (pH stability): no effect
[4]; inoculum 10^3 CFU/mL
  viable bacteria after 24 h in the three food products: no viable bacteria were detected
[4]; inoculum 10^4 CFU/mL
  viable bacteria after 24 h in the three food products: no bacteria were detected
[4]; SEY, and SMS, inoculum 10^6 CFU/mL, plate counts, n = 6
  CFU reduction after 24 h: approximately 10^3 CFU/mL
[5]
  influence of temperature on activity against S. Pullorum (thermal stability): no influence
[6]; 1 × MIC, after 8 h of incubation
  regrowth in killing curve: did not exhibit regrowth
[6]; 1 × MIC, log phase, ~5 × 10^4 CFU/mL in LB, 37°C, plate counts, n = 6
  incubation time after which all bacteria were killed (killing curve): 4 h
[6]; 4 × MIC, log phase, ~5 × 10^4 CFU/mL in LB, 37°C, plate counts at 0, 2, 4, 6 h, n = 6
  incubation time after which the pathogen was eliminated (killing curve): 6 h
[7]
  bactericidal activity, Live/Dead staining (SYTO 9 / propidium iodide): excellent bactericidal activity
[8]
  bactericidal activity, Live/Dead staining (SYTO 9 / propidium iodide): excellent bactericidal activity
[9]; 2 × MIC
  time within which bacteria were killed: ≤ 48 h
[9]; 4 × MIC
  time within which bacteria were killed: ≤ 24 h
[9]; stationary phase cells, 4 × MIC
  time to reduction to non-detectable levels: 48 h
